Experimental data from patent US12503454B2, “LPA receptor antagonists and uses thereof” (Gilead Sciences, Inc., priority 2021, dated 2025).

What follows are molecules tested against human LPAR1 (Homo sapiens, UniProt Q92633) (assay: LPAR1 intracellular calcium mobilization assay (antagonist mode, FLIPR)). Details: CHO-K1 EDG2 cells expressing human LPAR1; test compound 0.5 nM to 10 μM pre-incubated 60 minutes at 37° C., then LPA 18:2 at EC80 concentration (100 nM).
Assay type: cell-based
Method: In vitro LPAR1 activity was measured in an intracellular calcium mobilization assay. CHO-K1 EDG2 cells (DiscoverX cat #93-0644C2) expressing human LPAR1 (NM_001401.3) were seeded in a total volume of 25 μL of Dulbecco's Modification of Eagle's Medium (DMEM) with 10% Fetal Bovine Serum, 1× PenStrepGlutamine, 300 μg/ml Hygromycin, and 800 μg/ml G418 into 384-well tissue culture plate (Grenier #781091) at 15,000 cells/well and incubated at 37° C. overnight. Prior to testing, 25 μL Calcium Loading Dye Component A (FLIPR Calcium 6 Assay Kit Molecular Device # R8190) and 2.5 mM Probenecid (Invitrogen # P36400, prepared fresh) in Hank's Balanced Salt Solution (Corning #21-023-CV), 20 mM HEPES (Corning #25-060-CI), 0.1% Bovine Serum Albumin (Sigma-Aldrich # A7906-500G) was add to the cells for 60 minutes at 37° C.
Agonist dose curves of LPA 18:2 (Avanti Polar Lipids cat #857138, 0.5 nM to 10 μM) were recorded to determine the LPA 18:2 EC80 for subsequent antagonist assays. For agonist dose curves, cells were removed from the incubator 2 hours after dye loading and transferred to the FLIPR Tetra instrument (Molecular Devices, San Jose, CA). Calcium mobilization was monitored for 5 min and 10 μL 6×LPA in HBSS/20 mM Hepes/0.1% bovine serum albumin (BSA) was added to the cells 5 seconds into the assay.
To determine the LPAR1 antagonist activity of test compounds, cells were pre-incubated with test compound at a dose range of 0.5 nM to 10 μM, followed by LPA at EC80 concentration (100 nM). After dye loading, cells were removed from the incubator and 0.3 μL of 200× antagonist was added. Cells were incubated for 60 minutes at 37° C. Antagonist activity was measured on a FLIPR Tetra. Calcium mobilization was monitored for 3.5 minutes and 10 μL 6×EC80 LPA in HBSS, 20 mM HEPES, and 0.1% BSA was added to the cells 5 seconds into the assay. Signal amplitude (Maximum minus minimum) values were plotted against log10 of antagonist concentration using Dose Response Tool (Gilead Sciences Inc.) to determine […].
To assess the antagonistic potential of exemplified compounds […] were determined for Compounds 1 to 66 in the LPAR1 calcium mobilization assay. The compound numbers correspond to the compound numbers in Examples 1 to 18. N/A=not available.

Sequence of human LPAR1 (Q92633 whole entry): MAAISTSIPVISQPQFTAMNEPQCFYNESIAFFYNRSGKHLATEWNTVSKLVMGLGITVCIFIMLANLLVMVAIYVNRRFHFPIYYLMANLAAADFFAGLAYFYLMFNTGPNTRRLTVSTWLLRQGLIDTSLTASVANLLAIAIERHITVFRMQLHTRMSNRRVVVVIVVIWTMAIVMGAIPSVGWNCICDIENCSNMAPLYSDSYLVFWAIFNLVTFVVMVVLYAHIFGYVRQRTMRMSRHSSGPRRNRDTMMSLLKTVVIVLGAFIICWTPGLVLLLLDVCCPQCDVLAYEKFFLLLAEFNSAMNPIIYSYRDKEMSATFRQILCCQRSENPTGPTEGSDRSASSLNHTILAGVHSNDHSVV

`C[C@@H](OC(=O)Nc1c(-c2ccc(C(=O)Nc3ccnc(C(F)(F)F)c3)cn2)nnn1C)c1cc(F)cnc1Cl` [Compound 45, (R)-1-(2-chloro-5-fluoropyridin-3-yl)ethyl (1-methyl-4-(5-((2-(trifluoromethyl)pyridin-4-yl)carbamoyl)pyridin-2-yl)-1H-1,2,3-triazol-5-yl)carbamate] was tested. Which EC50 did it give?
Its EC50 is less than 4.6 nM.

For `C[C@@H](OC(=O)Nc1c(-c2ccc(C(=O)NC34CC(F)(C3)C4)cn2)nnn1C)c1cc(F)cnc1Cl` [Compound 46, (R)-1-(2-chloro-5-fluoropyridin-3-yl)ethyl (4-(5-((3-fluorobicyclo-[1.1.1]pentan-1-yl)carbamoyl)-pyridin-2-yl)-1-methyl-1H-1,2,3-triazol-5-yl)-carbamate], which EC50 is on record?
The EC50 was 88.1 nM.

Which EC50 does the source give for `C[C@@H](OC(=O)Nc1c(-c2ccc(C(=O)NC34CC(C#N)(C3)C4)cn2)nnn1C)c1cc(F)cnc1Cl` [Compound 47, (R)-1-(2-chloro-5-fluoropyridin-3-yl)ethyl (4-(5-((3-cyanobicyclo-[1.1.1]pentan-1-yl)carbamoyl)-pyridin-2-yl)-1-methyl-1H-1,2,3-triazol-5-yl)-carbamate] here?
Its EC50 is less than 4.6 nM.

`C[C@@H](OC(=O)Nc1c(-c2ccc(C(=O)NC34CC(C(F)F)(C3)C4)cn2)nnn1C)c1cc(F)cnc1Cl` [Compound 48, (R)-1-(2-chloro-5-fluoropyridin-3-yl)ethyl (4-(5-((3-(difluoromethyl)-bicyclo[1.1.1]-pentan-1-yl)-carbamoyl)pyridin-2-yl)-1-methyl-1H-1,2,3-triazol-5-yl)carbamate] was tested. Which EC50 did it give?
The EC50 was 80.7 nM.

Which EC50 does the source give for `C[C@@H](OC(=O)Nc1c(-c2ccc(C(=O)Nc3ccc(C#N)cc3)cn2)nnn1C)c1cc(F)cnc1Cl` [Compound 49, (R)-1-(2-chloro-5-fluoropyridin-3-yl)ethyl (4-(5-((4-cyanophenyl)-carbamoyl)pyridin-2-yl)-1-methyl-1H-1,2,3-triazol-5-yl)carbamate] here?
The EC50 was 74.3 nM.

How did the EC50 turn out when `C[C@@H](OC(=O)Nc1c(-c2ccc(C(=O)Nc3ccnc(C#N)c3)cn2)nnn1C)c1cc(F)cnc1Cl` [Compound 50, (R)-1-(2-chloro-5-fluoropyridin-3-yl)ethyl (4-(5-((2-cyanopyridin-4-yl)carbamoyl)-pyridin-2-yl)-1-methyl-1H-1,2,3-triazol-5-yl)-carbamate] was run?
The EC50 was 8.7 nM.

With `C[C@@H](OC(=O)Nc1c(-c2ccc(C(=O)Nc3cc(Cl)nc(Cl)c3)cn2)nnn1C)c1cc(F)cnc1Cl` [Compound 51, (R)-1-(2-chloro-5-fluoropyridin-3-yl)ethyl (4-(5-((2,6-dichloro-pyridin-4-yl)-carbamoyl)pyridin-2-yl)-1-methyl-1H-1,2,3-triazol-5-yl)carbamate] as the molecule, how does the EC50 read?
The EC50 was less than 4.6 nM.

How did the EC50 turn out when `C[C@@H](OC(=O)Nc1c(-c2ccc(C(=O)Nc3nc(C(F)(F)F)co3)cn2)nnn1C)c1cc(F)cnc1Cl` [Compound 52] was run?
The EC50 was 281 nM.

`C[C@@H](OC(=O)Nc1c(-c2ccc(C(=O)Nc3ncc(C(F)(F)F)s3)cn2)nnn1C)c1cc(F)cnc1Cl` [Compound 53, (R)-1-(2-chloro-5-fluoropyridin-3-yl)ethyl (1-methyl-4-(5-((5-(trifluoro-methyl)thiazol-2-yl)carbamoyl)-pyridin-2-yl)-1H-1,2,3-triazol-5-yl)carbamate] was tested. Which EC50 did it give?
Its EC50 is 19.4 nM.

For `C#CC12CC(NC(=O)c3ccc(-c4nnn(C)c4NC(=O)O[C@H](C)c4cc(F)cnc4Cl)nc3)(C1)C2` [Compound 54, (R)-1-(2-chloro-5-fluoropyridin-3-yl)ethyl (4-(5-((3-ethynylbicyclo-[1.1.1]pentan-1-yl)carbamoyl)-pyridin-2-yl)-1-methyl-1H-1,2,3-triazol-5-yl)-carbamate], which EC50 is on record?
Its EC50 is less than 4.6 nM.

With `C[C@@H](OC(=O)Nc1c(-c2ccc(C(=O)NC34CC(Cl)(C3)C4)cn2)nnn1C)c1cccnc1F` [Compound 55, (R)-1-(2-fluoropyridin-3-yl)ethyl (4-(5-((3-chlorobicyclo[1.1.1]pentan-1-yl)carbamoyl)pyridin-2-yl)-1-methyl-1H-1,2,3-triazol-5-yl)carbamate] as the molecule, how does the EC50 read?
Its EC50 is 58.1 nM.

For `C[C@@H](OC(=O)Nc1c(-c2ccc(C(=O)NC34CC(C(F)(F)F)(C3)C4)cn2)nnn1C)c1cccnc1F` [Compound 56, (R)-1-(2-fluoropyridin-3-yl)ethyl (1-methyl-4-(5-((3-(trifluoro-methyl)bicyclo[1.1.1]-pentan-1-yl)carbamoyl)-pyridin-2-yl)-1H-1,2,3-triazol-5-yl)carbamate], which EC50 is on record?
The EC50 was 139 nM.

Which EC50 does the source give for `C[C@@H](OC(=O)Nc1c(-c2ccc(C(=O)NC34CC(F)(C3)C4)cn2)nnn1C)c1cccnc1F` [Compound 57, (R)-1-(2-fluoropyridin-3-ylethyl (4-(5-((3-fluorobicyclo[1.1.1]-pentan-1-yl)carbamoyl)-pyridin-2-yl)-1-methyl-1H-1,2,3-triazol-5-yl)-carbamate] here?
The EC50 was 717 nM.

Which EC50 does the source give for `Cc1nc(-c2nnn(C)c2NC(=O)O[C@H](C)c2cccnc2Cl)ccc1C(=O)NC12CC(Cl)(C1)C2` [Compound 58, (R)-1-(2-chloropyridin-3-yl)ethyl (4-(5-((3-chlorobicyclo[1.1.1]pentan-1-yl)carbamoyl)-6-methylpyridin-2-yl)-1-methyl-1H-1,2,3-triazol-5-yl)carbamate] here?
Its EC50 is 48.3 nM.

How did the EC50 turn out when `C[C@@H](OC(=O)Nc1c(-c2ncc(C(=O)NC34CC(C#N)(C3)C4)cc2F)nnn1C)c1cccnc1Cl` [Compound 59, (R)-1-(2-chloropyridin-3-yl)ethyl (4-(5-((3-cyanobicyclo[1.1.1]pentan-1-yl)carbamoyl)-3-fluoropyridin-2-yl)-1-methyl-1H-1,2,3-triazol-5-yl)carbamate] was run?
The EC50 was 23.2 nM.

With `C[C@@H](OC(=O)Nc1c(-c2ccc(C(=O)NC34CC(F)(C3)C4)c(Cl)n2)nnn1C)c1cccnc1Cl` [Compound 60, (R)-1-(2-chloropyridin-3-yl)ethyl (4-(6-chloro-5-((3-fluorobicyclo[1.1.1]pentan-1-yl)carbamoyl)pyridin-2-yl)-1-methyl-1H-1,2,3-triazol-5-yl)carbamate] as the molecule, how does the EC50 read?
Its EC50 is 93.4 nM.

Which EC50 does the source give for `C[C@@H](OC(=O)Nc1c(-c2cc(F)c(C(=O)NC34CC(C#N)(C3)C4)cn2)nnn1C)c1cccnc1Cl` [Compound 61, (R)-1-(2-chloropyridin-3-yl)ethyl (4-(5-((3-cyanobicyclo[1.1.1]pentan-1-yl)carbamoyl)-4-fluoropyridin-2-yl)-1-methyl-1H-1,2,3-triazol-5-yl)carbamate] here?
Its EC50 is 233 nM.

With `C[C@@H](OC(=O)Nc1c(-c2ccc(C(=O)NC34CC(C#N)(C3)C4)c(C(F)(F)F)n2)nnn1C)c1cccnc1Cl` [Compound 62, (R)-1-(2-chloropyridin-3-yl)ethyl (4-(5-((3-cyanobicyclo[1.1.1]pentan-1-yl)carbamoyl)-6-(trifluoromethyl)pyridin-2-yl)-1-methyl-1H-1,2,3-triazol-5-yl)carbamate] as the molecule, how does the EC50 read?
Its EC50 is 14.5 nM.

For `C[C@@H](OC(=O)Nc1c(-c2ccc(C(=O)NC34CC(F)(C3)C4)c(F)n2)nnn1C)c1cccnc1Cl` [Compound 63, (R)-1-(2-chloropyridin-3-yl)ethyl (4-(6-fluoro-5-((3-fluorobicyclo[1.1.1]pentan-1-yl)carbamoyl)pyridin-2-yl)-1-methyl-1H-1,2,3-triazol-5-yl)carbamate], which EC50 is on record?
Its EC50 is 145 nM.

How did the EC50 turn out when `C[C@@H](OC(=O)Nc1c(-c2ncc(C(=O)NC34CC(F)(C3)C4)cc2F)nnn1C)c1cccnc1Cl` [Compound 64, (R)-1-(2-chloropyridin-3-yl)ethyl (4-(3-fluoro-5-((3-fluorobicyclo[1.1.1]pentan-1-yl)carbamoyl)pyridin-2-yl)-1-methyl-1H-1,2,3-triazol-5-yl)carbamate] was run?
The EC50 was 93.5 nM.

`C[C@@H](OC(=O)Nc1c(-c2ccc(C(=O)NC34CC(C#N)(C3)C4)c(Cl)n2)nnn1C)c1cccnc1Cl` [Compound 65, (R)-1-(2-chloropyridin-3-yl)ethyl (4-(6-chloro-5-((3-cyanobicyclo[1.1.1]pentan-1-yl)carbamoyl)pyridin-2-yl)-1-methyl-1H-1,2,3-triazol-5-yl)carbamate] was tested. Which EC50 did it give?
The EC50 was less than 4.6 nM.

Which EC50 does the source give for `C[C@@H](OC(=O)Nc1c(-c2ccc(C(=O)NC34CC(F)(C3)C4)c(C(F)(F)F)n2)nnn1C)c1cccnc1Cl` [Compound 66, (R)-1-(2-chloropyridin-3-yl)ethyl (4-(5-((3-fluorobicyclo[1.1.1]pentan-1-yl)carbamoyl)-6-(trifluoromethyl)pyridin-2-yl)-1-methyl-1H-1,2,3-triazol-5-yl)carbamate] here?
Its EC50 is 210 nM.
